Read-outs that look alike come from different tables or passages of the source. Marks after values point to notes of the source that are not given here.
Legend:
[1] = system: T. brucei brucei Lister 427; test: Trypanosome replication assay; assay type: cell-based, Trypanosoma brucei brucei; settings: 48 h, 48 h, values ±7%
Experimental: Then 2 μL of DMSO (control) or different concentrations of drugs prepared from 200× DMSO stocks were added to the cultures. Cells were incubated at 37° C. for 48 h and counted with a hemocytometer. […] All experiments were repeated thrice in independent studies where each dose was administered in duplicate (total n=6). HepG2 Cell Toxicity Assay. The 384 well MTT cytotoxicity assay is a modification of the MTT method described by Ferrari et al. optimized for 384-well throughput, with modifications described below.

[2] = system: P. falciparum W2; test: P. falciparum W2 assay; assay type: cell-based; settings: strain W2, read-out: P. falciparum W2 (EC50)
[3] = system: P. falciparum D6; test: P. falciparum D6 assay; assay type: cell-based; settings: strain D6
[4] = system: L. major amastigote; test: L. major amastigote assay; assay type: cell-based
[5] = system: T. cruzi; test: T. cruzi growth inhibition; assay type: cell-based, Trypanosoma cruzi
[6] = system: L. major promastigote; test: L. major promastigote assay; assay type: cell-based
[7] = system: P. falciparum C235; test: P. falciparum C235 assay; assay type: cell-based; settings: strain C235, read-out: P. falciparum C235 (EC50)
[8] = Trypanosoma brucei, concentration giving 50% inhibition of growth of T brucei brucei Lister 427 cells, read-out: Tbb EC50
[9] = concentration giving 50% inhibition of growth of T brucei brucei Lister 427 cells, read-out: Tbb EC50

O=C(NC1CC1)c1cccc(-c2ccc3ncnc(Nc4ccc(OCc5cccc(F)c5)c(Cl)c4)c3c2)c1 [Compound 10e, 3-(4-((3-Chloro-4-((3-fluorobenzyl)oxy)phenyl)amino)-quinazolin-6-yl)-N-cyclopropylbenzamide]
EC50 [1, 8]: 4.5 µM

CN1CCN(S(=O)(=O)c2cccc(-c3ccc4ncnc(Nc5ccc(OCc6cccc(F)c6)c(Cl)c5)c4c3)c2)CC1 [NEU-770]
EC50 [2]: 0.084 µM
EC50 [3]: 0.038 µM
EC50 [4]: 1.2 µM
EC50 [5]: 1.4 µM
EC50 [6]: > 15 µM
EC50 [1, 9]: 3.3 µM
EC50 [7]: 0.033 µM

CC(C)S(=O)(=O)CCNCc1ccc(-c2ccc3ncnc(Nc4ccc(OCc5cccc(F)c5)c(Cl)c4)c3c2)o1 [Compound 4, reference compound]
EC50 [1, 9]: 0.48 µM

O=c1[nH]cc(-c2ccc3ncnc(Nc4ccc(OCc5cccc(F)c5)c(Cl)c4)c3c2)c(=O)[nH]1 [Compound 10j]
EC50 [1, 9]: 22.6 µM

Fc1cccc(COc2ccc(Nc3ncnc4ccc(-c5cccc6ncccc56)cc34)cc2Cl)c1 [Compound 10f, N-(3-Chloro-4-((3-fluorobenzyl)oxy)phenyl)-6-(quinolin-5-yl)quinazolin-4-amine]
EC50 [1, 8]: 4.53 µM

CC(C)(C)OC(=O)N1CCN(S(=O)(=O)c2ccc(-c3ccc4ncnc(Nc5ccc(OCc6cccc(F)c6)c(Cl)c5)c4c3)cc2)CC1 [NEU-624]
EC50 [2]: 0.58 µM
EC50 [3]: 0.27 µM
EC50 [4]: 14 µM
T. cruzi % inh at 10 μM [5]: (5)* %
EC50 [6]: 14 µM
EC50 [1, 9]: 1 µM
EC50 [7]: 0.43 µM

CCNC(=O)c1ccc(-c2ccc3ncnc(Nc4ccc(OCc5cccc(F)c5)c(Cl)c4)c3c2)cc1F [Compound 10c, 4-(4-4-((3-Chloro-4-((3-fluorobenzyl)oxy)phenyl)amino)-quinazolin-6-yl)-N-ethyl-2-fluorobenzamide]
EC50 [1, 9]: 3.85 µM

CCCS(=O)(=O)CCNCc1ccc(-c2ccc3ncnc(Nc4ccc(OCc5cccc(F)c5)c(Cl)c4)c3c2)o1 [Compound 3, reference compound]
EC50 [1, 9]: 0.43 µM

Fc1cccc(Cn2ncc3ccc(Nc4ncnc5ccc(-c6cccc(N7CCOCC7)c6)cc45)cc32)c1 [NEU-734]
EC50 [2]: 0.74 µM
EC50 [3]: 0.91 µM
EC50 [4]: > 15 µM
T. cruzi % inh at 10 μM [5]: (62)* %
EC50 [6]: 0.98 µM
EC50 [1, 9]: 0.84 µM
EC50 [7]: 1.1 µM

O=C(c1ccc(-c2ccc3ncnc(Nc4ccc(OCc5cccc(F)c5)c(Cl)c4)c3c2)cc1)N1CCCCC1 [Compound 23l, (4-(4-((3-Chloro-4-((3-fluorobenzyl)oxy)phenyl)amino)-quinazolin-6-yl)phenyl)(piperidin-1-yl)methanone]
EC50 ([2]; Plasmodium falciparum): 0.88 µM
EC50 ([3]; Plasmodium falciparum): 0.25 µM
EC50 ([4]; Leishmania major): 2.9 µM
EC50 ([5]; Trypanosoma cruzi): > 50 µM
EC50 ([6]; Leishmania major): 1 µM
EC50 [1, 8]: 0.94 µM
EC50 ([7]; Plasmodium falciparum): 0.36 µM

Cl.O=S(=O)(c1ccc(-c2ccc3ncnc(Nc4ccc(OCc5ccccc5F)c(Cl)c4)c3c2)cc1)N1CCOCC1 [Compound 20i]
T. cruzi % inh at 10 μM [5]: 10%

CC(C)(C)OC(=O)N1CCN(c2ccc(-c3ccc4ncnc(Nc5ccc(OCc6cccc(F)c6)c(Cl)c5)c4c3)cc2)CC1 [NEU-634]
EC50 [2]: 3.2 µM
EC50 [3]: 0.86 µM
EC50 [4]: 3.1 µM
T. cruzi % inh at 10 μM [5]: (8)* %
EC50 [6]: 3.1 µM
EC50 [1, 9]: 6 µM
EC50 [7]: 1.1 µM

Fc1cccc(COc2ccc(Nc3ncnc4ccc(-c5ccc(CN6CCCCC6)cc5)cc34)cc2Cl)c1 [Compound 23j]
EC50 [2]: 0.11 µM
EC50 [3]: 0.068 µM
EC50 [4]: 5.5 µM
EC50 [5]: 3.4 µM
EC50 [6]: 8.4 µM
EC50 [1, 9]: 1.5 µM
EC50 [7]: 0.091 µM

O=C(c1cccc(-c2ccc3ncnc(Nc4ccc(OCc5cccc(F)c5)c(Cl)c4)c3c2)c1)N1CCCC1 [NEU-618]
EC50 [2]: 0.09 µM
EC50 [3]: 0.069 µM
EC50 [4]: > 15 µM
T. cruzi % inh at 10 μM [5]: (7)* %
EC50 [6]: > 15 µM
EC50 [1, 9]: 0.52 µM
EC50 [7]: 0.09 µM

Fc1cccc(COc2ccc(Nc3ncnc4ccc(-c5ccc(N6CCNCC6)cc5)cc34)cc2Cl)c1 [NEU-710]
EC50 [2]: 0.63 µM
EC50 [3]: 0.38 µM
EC50 [4]: 8.6 µM
EC50 [5]: 1.4 µM
EC50 [6]: > 15 µM
EC50 [1, 9]: 0.37 µM
EC50 [7]: 0.76 µM

CN1CCN(S(=O)(=O)c2ccc(-c3ccc4ncnc(Nc5ccc(Cl)cc5)c4c3)cc2)CC1 [NEU-769]
EC50 [2]: 0.39 µM
EC50 [3]: 0.11 µM
EC50 [4]: > 15 µM
EC50 [5]: 21 µM
EC50 [6]: 4.6 µM
EC50 [1, 9]: 2.4 µM
EC50 [7]: 0.17 µM

Fc1cccc(COc2ccc(Nc3ncnc4ccc(-c5cccc(-n6cccn6)c5)cc34)cc2Cl)c1 [NEU-709]
EC50 [2]: 19 µM
EC50 [3]: 19 µM
EC50 [4]: > 15 µM
T. cruzi % inh at 10 μM [5]: (10)* %
EC50 [6]: > 15 µM
EC50 [1, 9]: 7.5 µM
EC50 [7]: 19 µM

CC(C)(C)NS(=O)(=O)c1ccccc1-c1ccc2ncnc(Nc3ccc(OCc4cccc(F)c4)c(Cl)c3)c2c1 [Compound 10w, N-(tert-Butyl)-2-(4-((3-chloro-4-((3-fluorobenzyl)oxy)-phenyl)amino)quinazolin-6-yl)benzenesulfonamide]
EC50 ([5]; Trypanosoma cruzi): 6.4 µM
EC50 [1, 8]: 4.66 µM
EC50 ([1]; concentration giving 50% inhibition of growth of T brucei brucei Lister 427 cells, listed as NEU-620, read-out: Tbb EC50): 4.7 µM

COc1ccc(Nc2ncnc3ccc(-c4ccc(S(=O)(=O)N5CCN(C)CC5)cc4)cc23)cc1Cl [NEU-766]
EC50 [2]: 0.21 µM
EC50 [3]: 0.033 µM
EC50 [4]: > 15 µM
EC50 [5]: > 50 µM
EC50 [6]: 5.9 µM
EC50 [1, 9]: 0.78 µM
EC50 [7]: 0.058 µM

Fc1cccc(COc2ccc(Nc3ncnc4ccc(-c5cccc(N6CCNCC6)c5)cc34)cc2Cl)c1 [NEU-711]
EC50 [5]: 2.2 µM
EC50 [1, 9]: 0.25 µM

Oc1ccc(-c2ccc3ncnc(Nc4ccc(OCc5cccc(F)c5)c(Cl)c4)c3c2)cc1 [Compound 10i, 4-(4-((3-Chloro-4-((3-fluorobenzyl)oxy)phenyl)amino)-quinazolin-6-yl)phenol]
EC50 ([1]; Trypanosoma brucei, read-out: Tbb EC50, concentration giving 50% inhibition of growth of T brucei brucei Lister 427 cells): 6.45 µM

Cc1ccc(-c2ccc3ncnc(Nc4ccc(OCc5cccc(F)c5)c(Cl)c4)c3c2)c2ccccc12 [Compound 10b, N-(3-Chloro-4-((3-fluorobenzyl)oxy)phenyl)-6-(4-methylnaphthalen-1-yl)quinazolin-4-amine]
EC50 [1, 8]: 2.27 µM

Fc1cccc(COc2ccc(Nc3ncnc4ccc(-c5ccccc5Oc5ccccc5)cc34)cc2Cl)c1 [Compound 10g, N-(3-Chloro-4-((3-fluorobenzyl)oxy)phenyl)-6-(2-phenoxyphenyl)quinazolin-4-amine]
EC50 [1, 8]: 5.3 µM

CS(=O)(=O)CCNCc1ccc(-c2ccc3ncnc(Nc4ccc(OCc5ccccc5)c(Br)c4)c3c2)o1 [Compound 7, reference compound]
EC50 [1, 9]: 0.56 µM

Fc1cccc(COc2ccc(Nc3ncnc4ccc(-c5cc6ccccc6s5)cc34)cc2Cl)c1 [Compound 10h, 6-(Benzo[b]thiopen-2-yl)-N-(3-chloro-4-((3-fluorobenzyl)-oxy)phenyl)quinazolin-4-amine]
EC50 [1, 9]: 5.98 µM

Cc1nnc(-c2cccc(-c3ccc4ncnc(Nc5ccc(OCc6cccc(F)c6)c(Cl)c5)c4c3)c2)o1 [Compound 10d, N-(3-Chloro-4-((3-fluorobenzyl)oxy)phenyl)-6-(3-(5-methyl-1,3,4-oxadiazol-2-1)phenyl)quinazolin-4-amine]
EC50 [1, 9]: 4.21 µM

CS(=O)(=O)CCN(Cc1ccccc1)Cc1ccc(-c2ccc3ncnc(Nc4ccc(OCc5cccc(F)c5)c(Cl)c4)c3c2)o1 [Compound 9, reference compound]
EC50 [1, 9]: 1.51 µM

— patent publication US20150259331A1, “PROTOZOAN PARASITE GROWTH INHIBITORS” (Northeastern University, priority 2014, published 2015)
